Results on 23 compounds are retold here after patent US8163793B2, “Proline derivatives” (Hoffman-La Roche Inc., priority 2009, dated 2012).

One experiment has as its target Cat L (UniProt P07711). Nature of the experiment: Cathepsin enzyme inhibition assay (fluorogenic peptide substrate Z-Val-Val-Arg-AMC), Cathepsin L. Type of experiment: biochemical, human and mouse. The following applies: enzyme 1 nM, substrate 20 μM, pH 6.5; read-out: CatL IC50. The method, boiled down:
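Cathepsin L at 1 nM was mixed with compound, then started with 20 μM Z-Val-Val-Arg-AMC in pH 6.5 potassium phosphate with EDTA, Triton X-100 and 5 mM DTT. AMC fluorescence (ex 360/em 465 nm) was followed over 20 min. IC50 is given in μM.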

In a further experiment the target is Cathepsin S (UniProt P25774). Nature of the experiment: Cathepsin enzyme inhibition assay (fluorogenic peptide substrate Z-Val-Val-Arg-AMC), Cathepsin S. Type of experiment: biochemical, human and mouse. The note with it: enzyme 1 nM, substrate 20 μM, pH 6.5; read-out: CatS IC50. The essentials:
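Human or mouse cathepsin S (1 nM) was run in 100 mM potassium phosphate pH 6.5 with 5 mM EDTA, 0.001% Triton X-100 and 5 mM DTT. The rise in AMC fluorescence from cleavage was measured, and IC50 values were calculated by standard methods and expressed in μM.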

Structures are written as SMILES.

`N#CC1(NC(=O)[C@@H]2C[C@@H](S(=O)(=O)c3ccccc3Cl)CN2C(=O)Cc2ncc(Cl)cn2)CC1` [Example 414, (2S,4R)-4-(2-Chloro-benzenesulfonyl)-1-[2-(5-chloro-pyrimidin-2-yl)-acetyl]-pyrrolidine-2-carboxylic acid (1-cyano-cyclopropyl)-amide]: the IC50 (in general, the concentration that gives 50% inhibition) at Cat L amounted to 5450 nM; on Cathepsin S, 0.295 nM.
The matching figures for `Cc1cc(N2C[C@H](S(=O)(=O)c3ccc(N4CC(F)(F)C4)cc3C(F)(F)F)C[C@H]2C(=O)NC2(C#N)CC2)n(C2CCC2)n1` [Example 415, (2S,4R)-1-(2-Cyclobutyl-5-methyl-2H-pyrazol-3-yl)-4-[4-(3,3-difluoro-azetidin-1-yl)-2-trifluoromethyl-benzenesulfonyl]-pyrrolidine-2-carboxylic acid (1-cyano-cyclopropyl)-amide]: 11700 nM and 0.215 nM.
The matching figures for `Cc1cc(N2C[C@H](S(=O)(=O)c3ccc(-n4cccn4)cc3C(F)(F)F)C[C@H]2C(=O)NC2(C#N)CC2)n(C2CCC2)n1` [Example 416, (2S,4R)-1-(2-Cyclobutyl-5-methyl-2H-pyrazol-3-yl)-4-(4-pyrazol-1-yl-2-trifluoromethyl-benzenesulfonyl)-pyrrolidine-2-carboxylic acid (1-cyano-cyclopropyl)-amide]: 21400 nM and 0.338 nM.
Take `N#CC1(NC(=O)[C@@H]2C[C@@H](S(=O)(=O)c3ccccc3Cl)CN2C(=O)[C@H](N)c2ccc(Cl)cc2)CC1` [Example 417, (2S,4R)-1-[(R)-2-Amino-2-(4-chloro-phenyl)-acetyl]-4-(2-chloro-benzenesulfonyl)-pyrrolidine-2-carboxylic acid (1-cyano-cyclopropyl)-amide]: the IC50 on Cat L was 55.5 nM; on Cathepsin S, 2.45 nM.
Turning to `Cc1cc(N2C[C@H](S(=O)(=O)c3ccccc3Cl)C[C@H]2C(=O)NC2(C#N)CC2)n(Cc2ccc(Cl)cc2)n1` [Example 418, (2S,4R)-4-(2-Chloro-benzenesulfonyl)-1-[2-(4-chloro-benzyl)-5-methyl-2H-pyrazol-3-yl]-pyrrolidine-2-carboxylic acid (1-cyano-cyclopropyl)-amide], the values for the IC50 at Cat L and at Cathepsin S were 1620 nM and 4 nM, respectively.
In the case of `Cc1cc(N2C[C@H](S(=O)(=O)c3ccc(-c4ccncn4)cc3C(F)(F)F)C[C@H]2C(=O)NC2(C#N)CC2)n(C2CCC2)n1` [Example 419, (2S,4R)-1-(2-Cyclobutyl-5-methyl-2H-pyrazol-3-yl)-4-(4-pyrimidin-4-yl-2-trifluoromethyl-benzenesulfonyl)-pyrrolidine-2-carboxylic acid (1-cyano-cyclopropyl)-amide], the IC50 at Cat L came to 16900 nM; at Cathepsin S it was 0.415 nM.
On to `Cc1cc(N2C[C@H](S(=O)(=O)c3ccc(-c4ccnn4C)cc3C(F)(F)F)C[C@H]2C(=O)NC2(C#N)CC2)n(C2CCC2)n1` [Example 420, (2S,4R)—N-(1-cyanocyclopropyl)-1-(1-cyclobutyl-3-methyl-1H-pyrazol-5-yl)-4-(4-(1-methyl-1H-pyrazol-5-yl)-2-(trifluoromethyl)phenylsulfonyl)pyrrolidine-2-carboxamide], for which the IC50 on Cat L was 14000 nM; at Cathepsin S, 0.395 nM.
Take `N#CC1(NC(=O)[C@H]2CC(S(=O)(=O)c3ccccc3Cl)CN2C(=O)C(NCC(F)(F)F)c2ccc(Cl)cc2)CC1` (stereo partly drawn) [Example 421, (R)-4-(2-Chloro-benzenesulfonyl)-1-[2-(4-chloro-phenyl)-2-(2,2,2-trifluoro-ethylamino)-acetyl]-pyrrolidine-2-carboxylic acid (1-cyano-cyclopropyl)-amide]: the IC50 came out at 4950 nM at Cat L and 11.5 nM on Cathepsin S.
The matching figures for `N#CC1(NC(=O)[C@@H]2C[C@@H](S(=O)(=O)c3ccccc3Cl)CN2C(=O)Cn2ccc(C(F)(F)F)n2)CC1` [Example 422, (2S,4R)-4-(2-Chloro-benzenesulfonyl)-1-[2-(3-trifluoromethyl-pyrazol-1-yl)-acetyl]-pyrrolidine-2-carboxylic acid (1-cyano-cyclopropyl)-amide]: 4360 nM and 1.85 nM.
The corresponding values for `N#CC1(NC(=O)[C@@H]2C[C@@H](S(=O)(=O)CC3CC3)CN2C(=O)C2(C(F)(F)F)CC2)CC1` [Example 423, (2S,4R)-4-Cyclopropylmethanesulfonyl-1-(1-trifluoromethyl-cyclopropanecarbonyl)-pyrrolidine-2-carboxylic acid (1-cyano-cyclopropyl)-amide] are not below 25000 nM and 1470 nM.
The matching figures for `N#CC1(NC(=O)[C@@H]2C[C@@H](S(=O)(=O)CC3CC3)CN2C(=O)C2(c3ccc(Cl)cc3)CC2)CC1` [Example 424, (2S,4R)-1-[1-(4-Chloro-phenyl)-cyclopropanecarbonyl]-4-cyclopropylmethanesulfonyl-pyrrolidine-2-carboxylic acid (1-cyano-cyclopropyl)-amide]: not below 25000 nM and 410 nM.
Turning to `N#CC1(NC(=O)[C@@H]2C[C@@H](S(=O)(=O)c3ccccc3Cl)CN2C(=O)C2(c3ccc(F)cc3)CC2)CC1` [Example 425, (2S,4R)-4-(2-chlorophenylsulfonyl)-N-(1-cyanocyclopropyl)-1-(1-(4-fluorophenyl)-cyclopropanecarbonyl)pyrrolidine-2-carboxamide], the IC50 on Cat L is 335 nM; at Cathepsin S it was 0.26 nM.
Regarding `N#CC1(NC(=O)[C@@H]2C[C@@H](S(=O)(=O)c3ccccc3Cl)CN2C(=O)C2(c3ccc(Br)cc3)CC2)CC1` [Example 426, (2S,4R)-1-(1-(4-bromophenyl)cyclopropanecarbonyl)-4-(2-chlorophenylsulfonyl)-N-(1-cyanocyclopropyl)pyrrolidine-2-carboxamide], the IC50 at Cat L was found to be 45 nM; on Cathepsin S, 0.47 nM.
The matching figures for `N#CC1(NC(=O)[C@@H]2C[C@@H](S(=O)(=O)c3ccccc3Cl)CN2C(=O)C2(c3ccc(C(F)(F)F)cc3)CC2)CC1` [Example 427, (2S,4R)-4-(2-chlorophenylsulfonyl)-N-(1-cyanocyclopropyl)-1-(1-(4-(trifluoromethyl)phenyl)cyclopropanecarbonyl)pyrrolidine-2-carboxamide]: 95 nM and 0.51 nM.
The corresponding values for `N#CC1(NC(=O)[C@@H]2C[C@@H](S(=O)(=O)c3ccccc3Cl)CN2C(=O)C2(c3cccc(Cl)c3)CC2)CC1` [Example 428, (2S,4R)-1-(1-(3-chlorophenyl)cyclopropanecarbonyl)-4-(2-chlorophenylsulfonyl)-N-(1-cyanocyclopropyl)pyrrolidine-2-carboxamide] are 335 nM and 0.415 nM.
The matching figures for `N#CC1(NC(=O)[C@@H]2C[C@@H](S(=O)(=O)c3ccccc3Cl)CN2C(=O)C2(c3cccc(C(F)(F)F)c3)CC2)CC1` [Example 429, (2S,4R)-4-(2-chlorophenylsulfonyl)-N-(1-cyanocyclopropyl)-1-(1-(3-(trifluoromethyl)phenyl)cyclopropanecarbonyl)pyrrolidine-2-carboxamide]: 460 nM and 0.365 nM.
With `CC(C(=O)N1C[C@H](S(=O)(=O)c2ccccc2Cl)C[C@H]1C(=O)NC1(C#N)CC1)c1ccc(Cl)cc1` (stereo partly drawn) [Example 430, (2S,4R)-1-(2-(4-chlorophenyl)propanoyl)-4-(2-chlorophenylsulfonyl)-N-(1-cyanocyclopropyl)pyrrolidine-2-carboxamide], the IC50 at Cat L turned out to be 2590 nM; on Cathepsin S, 0.82 nM.
The corresponding values for `CC(C(=O)N1C[C@H](S(=O)(=O)c2ccccc2Cl)C[C@H]1C(=O)NC1(C#N)CC1)c1ccc(Cl)cc1` (stereo partly shown) [Example 431] are 130 nM and 0.875 nM.
The matching figures for `CC(C)C(C(=O)N1C[C@H](S(=O)(=O)c2ccccc2Cl)C[C@H]1C(=O)NC1(C#N)CC1)c1ccc(Cl)cc1` (stereo partly drawn) [Example 432, (2S,4R)-1-(2-(4-chlorophenyl)-3-methylbutanoyl)-4-(2-chlorophenylsulfonyl)-N-(1-cyanocyclopropyl)pyrrolidine-2-carboxamide]: 115 nM and 0.595 nM.
The matching figures for `CC(C)(C)OC(=O)N1CCC(C(=O)N2C[C@H](S(=O)(=O)c3ccccc3Cl)C[C@H]2C(=O)NC2(C#N)CC2)(c2ccc(Cl)cc2)CC1` [Example 433, tert-butyl 4-(4-chlorophenyl)-4-((2S,4R)-4-(2-chlorophenylsulfonyl)-2-(1-cyanocyclopropylcarbamoyl)pyrrolidine-1-carbonyl)piperidine-1-carboxylate]: 945 nM and 1.95 nM.
For the compound `N#CC1(NC(=O)[C@@H]2C[C@@H](S(=O)(=O)c3ccccc3Cl)CN2C(=O)C(F)(F)c2ccc(Cl)c(Cl)c2)CC1` [Example 437, (2S,4R)-4-(2-Chloro-benzenesulfonyl)-1-[2-(3,4-dichloro-phenyl)-2,2-difluoro-acetyl]-pyrrolidine-2-carboxylic acid (1-cyano-cyclopropyl)-amide], the IC50 at Cat L came to 335 nM; at Cathepsin S, 1.45 nM.
The corresponding values for `N#CC1(NC(=O)[C@@H]2C[C@@H](S(=O)(=O)c3ccccc3Cl)CN2C(=O)C2(c3ccc(Cl)cc3F)CC2)CC1` [Example 439, (2S,4R)-1-(1-(4-chloro-2-fluorophenyl)cyclopropanecarbonyl)-4-(2-chlorophenylsulfonyl)-N-(1-cyanocyclopropyl)pyrrolidine-2-carboxamide] are 29.5 nM and 0.895 nM.
`CS(=O)(=O)[C@@H]1C[C@@H](C(=O)NC2(C#N)CC2)N(C(=O)C2(C(F)(F)F)CC2)C1` [Example 440, (2S,4R)-4-Methanesulfonyl-1-(1-trifluoromethyl-cyclopropanecarbonyl)-pyrrolidine-2-carboxylic acid (1-cyano-cyclopropyl)-amide]: the figures for the IC50 on Cat L and on Cathepsin S were not below 25000 nM and 7470 nM, respectively.
